ChEMBL document CHEMBL5727242, “N-Methylbenzimidazoles as mIDH1 inhibitors” (2019)

Experiment: Biological Assay: Mutant IDH1 R132H Biochemical Assay mIDH1 catalyzes the NADPH-dependent reduction of alpha-ketoglutarate (a-KG) to (2R)-2-hydroxyglutarate (2-HG). NADPH consumption was measured by luminescent readout.The biochemical reactions were performed at 32° C. in 384-well plates using a reaction volume of 41 μL and the following assay buffer conditions: 50 mM Tris pH 7.5, 100 mM NaCl, 20 mM MgCl2, 0.05% BSA, 0.01% Brij, 1 μM NADPH, and 250 μM α-KG. The IDH1 R132H enzyme was used in a final concentration of 1.5 nM. Test compounds were used in a concentration range between 0.002 and 10 μM. The final DMSO concentration was 2.4%.The reaction was incubated for 30 minutes, then 40 μL of detection mix (0.75 μg/ml Luciferase, 0.02 U/ml Oxidoreductase, 4 μg/mL FMN, 2 μL/ml decanal/ethanol, 50 mM Tris pH 7.5, 0.5% Glycerin, 0.01% Tween-20, 0.05% BSA) was added. Luminescence was measured on a luminescent reader (10 seconds measuring time, 1 second integration period, 30% sensitivity). The decrease in luminescence is proportional to mIDH1 activity. IC50 values are determined by interpolation from plots of relative luminescence versus inhibitor concentration.

IC50: 38 nM
SMILES: COC(=O)c1ccc2c(c1)nc(Nc1ccc(OC(F)(F)F)cc1)n2[C@@H]1C[C@H](C)CC[C@H]1C(C)C
